Reference: patent US11800867B2, “Methods of repelling biting arthropods, reducing pathogen spread and treating arthropod infestation” (priority 2016, dated 2023)

Assays:
[1] = humans; compound found in bergamot and citrus essential oils; cited from earlier work
[2] = tested on: female Culex quinquefasciatus mosquitoes; assay: In vitro membrane feeder repellency assay, probing of treated collagen membranes (Example 2); type: in vivo; settings: 20% DEET in ethanol, 25 μL on collagen membrane; twenty minutes; average ± SE, n = 5
Text: (§1) A laboratory trial was required to evaluate the repellency of 1% Nootkatone against female Aedes aegypti, Culex quinquefasciatus, and Anopheles quadrimaculatus mosquitoes using an in vitro method.
(§2) Female adult laboratory reared Aedes aegypti, Culex quinquefasciatus, and Anopheles quadrimaculatus mosquitoes (susceptible) were obtained from Benzon Research in Carlisle, Pa. 250 mosquitoes were used per replicate (5 replicates per test, per species). Adult mosquitoes were 3-8 days old.
(§3) Nootkatone was diluted in ethanol and acetone (note that Nootkatone diluted in acetone was not tested against An. quadrimaculatus). A positive control consisting of 20% DEET in ethanol was prepared using stock solutions. Negative controls consisted of no treatment, and ethanol-only treatment.
(§4) The treatments were applied directly to prepared collagen membranes by pipetting 25 μL of the appropriate substance onto a membrane and spreading it evenly with the tip of the pipette.
(§5) Exposure container. A 30.5 cm×30.5 cm×30.5 cm rigid plastic frame supported by four, 4 cm high legs, with a sleeved entry on one side and a sliding door on the bottom.
(§6) Membrane feeder. Five wells (3 cm in diameter×8 mm in depth) in line on a hollow plastic block (6 cm wide×22 cm long×3 cm deep), which fits through the sliding door in the bottom of the exposure container. Hoses attached to each side of the block circulate heated water that is pumped from a water bath. The sliding door in the bottom of the exposure container covers and uncovers the wells in the membrane feeder, allowing mosquitoes to access the wells.
(§7) Test set-up. The membrane feeder was connected to a heated water bath, and warm water passed through the feeder via a circulating pump so that the wells were warmed to 89-95° F. Seventy-two (72) mg of ATP (disodium salt) were added to 26 mL of warmed citrated bovine blood, which was poured into the wells until they were completely full.
(§8) The collagen membranes were placed on vacuum greased wax paper for treatment. They were then treated as described above and left for five minutes to dry. After they dried, the membranes were placed over each of the wells (using vacuum grease as an adhesive), completely covering the blood.
(§9) Exposure to mosquitoes. The mosquitoes were released into the exposure container just prior to exposure to the membranes. The exposure container was then placed on the membrane feeder and the sliding door opened, allowing the mosquitoes to access the wells. The number of mosquitoes probing each membrane was recorded every two minutes for twenty minutes.
(§10) The above procedures were repeated until five replicates were completed. A new batch of 250 female mosquitoes and fresh blood were used for each replicate, and the wells were cleaned in between replicates. The position of the treatments was rotated for each replicate, so that each treatment was tested on each of the five wells.
(§11) Percent repellency was calculated for each replicate using the total number of probes with the following formula:
(§12) [formula] • where C=the total number of probes on the untreated well • and T=the total number of probes on the treated well
(§13) Average percent repellency and standard error were then calculated across all five replicates. Shapiro-Wilks tests were conducted to determine the normality of the data, based on total number of probes per replicate. Depending on normality, student t-tests (with concurrent F-tests for variance) or Mann-Whitney tests were then used to determine significance between the treatments.

[3] = tested on: female Aedes aegypti mosquitoes; assay: as above; type: in vivo; settings: 20% DEET in ethanol, 25 μL on collagen membrane; twenty minutes; average ± SE, n = 5
Text: as §1, §2, §3, §4, §5, §6, §7, §8, §9, §10, §11, §12, §13

[4] = tested on: female Anopheles quadrimaculatus mosquitoes; assay: as above; type: in vivo; settings: 20% DEET in ethanol, 25 μL on collagen membrane; twenty minutes; average ± SE, n = 5
Text: as §1, §2, §3, §4, §5, §6, §7, §8, §9, §10, §11, §12, §13

Row | Compound | Phototoxicity [1] | Percent repellency [2] | Percent repellency [3] | Percent repellency [4]
1 | COc1c2ccoc2cc2oc(=O)ccc12 [Bergapten, 5-methoxypsoralen] | causes phototoxicity in humans |  |  | 
2 | CCN(CC)C(=O)c1cccc(C)c1 [DEET, N,N-Diethyl-meta-toluamide, reference compound] |  | 95.9 ± 4.1% | 99.4 ± 0.6% | 100.0 ± 0.0%
